# Results taken from patent US11655252B2, “Aminopyrimidinyl derivatives” (Pfizer Inc., priority 2020, dated 2023).
# Tests used:
# [1] = target: JAK1 (Homo sapiens (Human), UniProt P23458); assay: JAK Family Caliper Enzyme Assay (JAK1); type: biochemical; details: recombinant human kinase domain, 1 mM ATP
# Protocol: (§1) JAK Family Caliper Enzyme Assay
# (§2) Compounds of the invention were evaluated by in vitro methods to determine their respective ability to inhibit the JAK kinases (TYK2, JAK1, JAK2, JAK3). Inhibitory activity was determined by using a microfluidic assay (LabChip 3000™ mobility shift technology, Caliper Life Science) to monitor phosphorylation of a synthetic peptide by the recombinant human kinase domain of each of the four members of the JAK family, JAK1, JAK2, JAK3 and TYK2. Reaction mixtures contained 1 μM of a fluorescently labeled synthetic peptide, a concentration less than the apparent Km, and 1 mM ATP.
# (§3) Compounds in DMSO solution were added to a 384-well plate. Reaction mixtures contained 10 mM HEPES, pH 7.4, 10 mM MgCl2, 0.01% BSA, 0.0005% Tween 20™, 1 mM ATP and 1 μM peptide substrate. The JAK1 and TYK2 assays contained 1 μM of the IRStide peptide (5FAM-KKSRGDYMTMQID) and the JAK2 and JAK3 assays contained 1 μM of the JAKtide peptide (FITC-KGGEEEEYFELVKK). The assays were initiated by the addition of 20 nM JAK1, 1 nM JAK2, 1 nM JAK or 1 nM TYK2 enzyme and were incubated at room temperature for three hours for JAK1, 60 minutes for JAK2, 75 minutes for JAK3 or 135 minutes for TYK2. Enzyme concentrations and incubation times were optimized for each new enzyme preps and were modified slightly over time to ensure 20% to 30% phosphorylation. The assays were stopped with 15 μL of 180 mM HEPES, pH 7.4, 20 mM EDTA, and 0.2% Coating Reagent 3. The assay plates were placed on a Caliper Life Science LC3000 instrument, and each well was sampled using appropriate separation conditions to measure the unphosphorylated and phosphorylated peptide.
# (§4) The data was collected using the HTS Well Analyzer software from Caliper Life Sciences. The data output for data analysis is the percent product converted calculated on peak height (Equation 1). % product converted=100*((product)/(product+substrate)) Equation 1: […]
# (§5) The percent effect at each compound concentration was calculated based on the positive and negative control well contained within each assay plate (Equation 2). […] The negative control wells contained DMSO alone (at the same concentration as the compound wells) that was used to set the baseline activity in the assay (i.e., uninhibited JAK1, JAK2, JAK3 or TYK2). % effect=100*((sample well−negative control)/(positive control−negative control)) Equation 2: […]
# (§6) The percent effect was plotted against the compound concentration compound. An unconstrained sigmoid curve was fitted using a 4 parameter logistic model and the compound concentration required for 50% inhibition (IC50) was determined (Equation 3). y=((max−min)/(1+((x/IC50)^s)))+min Equation 3: […]
# [2] = target: JAK2 (Homo sapiens (Human), UniProt O60674); assay: JAK Family Caliper Enzyme Assay (JAK2); type: biochemical; details: recombinant human kinase domain, 1 mM ATP
# Protocol: as §1, §2, §3, §4, §5, §6
# [3] = target: TYK2 (Homo sapiens (Human), UniProt P29597); assay: JAK Family Caliper Enzyme Assay (TYK2); type: biochemical; details: recombinant human kinase domain, 1 mM ATP
# Protocol: as §1, §2, §3, §4, §5, §6
# [4] = target: JAK3 (Homo sapiens (Human), UniProt P52333); assay: JAK Family Caliper Enzyme Assay (JAK3); type: biochemical; details: recombinant human kinase domain, 1 mM ATP
# Protocol: as §1, §2, §3, §4
# The percent effect at each compound concentration was calculated based on the positive and negative control well contained within each assay plate (Equation 2). […]
# [5] = In Vitro Human Hepatocyte Clearance Assay; type: in vitro ADME; details: cryopreserved human hepatocytes in suspension, 0.5 million cells/mL, 1 μM test compound, read-out: HHEP CLint, app (μL/min/million cells)
# Protocol: In Vitro Human Hepatocyte Clearance Assay A high-throughput human hepatocyte substrate-depletion assay was performed in a 384-well formatted as described previously [Di et al., Eur. J. Med. Chem., 2012, 57, 441]. Briefly, the cryopreserved human hepatocytes were thawed and resuspended in Williams' E medium supplemented with HEPES and Na2CO3. The cells were counted using the trypan blue exclusion method. Test compounds were added to suspended human hepatocytes in Williams' E medium buffer and incubated at 37° C. in a humidified CO2 incubator (75% relative humidity, 5% CO2/air) for 4 hours. The final incubation contained 0.5 million cells/mL and 1 μM test compound in 15 μL total volume with 0.1% DMSO. At various time points (0, 3, 10, 30, 60, 120, and 240 minutes), an aliquot of the sample was taken and quenched with cold acetonitrile containing internal standard. The samples were centrifuged at 3000 rpm for 10 minutes at 4° C., and the supernatants were transferred to new plates, which were sealed before performing LC-MS/MS analysis. The apparent metabolic intrinsic clearance (CLint, met, app) was determined based on the substrate-depletion half-life estimated from the ratio of the peak area response of each compound to that of the internal standard, as described earlier [Di et al., Eur. J. Med. Chem., 2012, 57, 441].
# [6] = test system: CXCL10 biomarker in Th2 stimulated ex vivo human skin; assay: Biomarker Modulation in Th2 Stimulated Ex Vivo Human Skin Assay; type: cell-based; details: 1% w/w formulation applied topically, qPCR
# Protocol: Biomarker Modulation in Th2 Stimulated Ex Vivo Human Skin Assay Compounds of this invention were assessed for their ability to modulate CXCL10 biomarker in Th2 stimulated ex vivo human skin following topical application. […] Freshly excised human skin from surgery specimens was cut with a dermatome to 750 μm thickness and mounted in a 7 mm static Franz cell for tissue culture such that the upper surface of the skin was exposed to air in the Franz cell donor chamber, and the bottom (dermis) was exposed to Cornification medium. A total of two skin donors were used (n=6 per treatment per donor). Incubations were carried out in a standard tissue culture incubator. Compound was dissolved in the indicated formulation at a concentration of 1% w/w and added apically to the skin at 10 μL per sample (approximately 18 μL per cm^2) at 4-6 replicates per donor. After 16 h media was replaced with stimulation cocktail containing anti-CD3 mAb, anti-CD28 mAb, IL-2, IL-4, IL-33 and TSLP. Incubation was continued for additional 24 hr at 37° C. Then skin was harvested, treated with RNALater solution and processed for RNA extraction and qPCR that was run in duplicates. MMP12, CCL26, CXCL10 and Filaggrin may be measured. Results for each sample were normalized to its own GAPDH internal standard which was not appreciably affected by stimulus or compound. Fold change was normalized to untreated sample.
# [7] = test system: interferon alpha signalling (TYK2 and JAK1), pSTAT3 in human whole blood lymphocytes; assay: HWB INF Alpha Induced STAT3 Phosphorylation Assay; type: cell-based; details: Lymphocyte, IFN alpha 5000 U/ml, flow cytometry
# Protocol: HWB INF Alpha Induced STAT3 Phosphorylation Assay
# Compounds of this invention were assessed for their ability to inhibit interferon alpha signalling in a human whole blood flow cytometry assay. Interferon alpha signals through TYK2 and JAK1. Test articles were prepared as 30 mM stocks in 100% DMSO, and then diluted to 10 mM. An 11-point 3 dilution series was created in DMSO with a top concentration of […]. Further dilution was done by adding 4 μL of the above test article solutions into 96 μL of PBS with a top concentration of 400 μM. Human whole blood (HWB) was collected from healthy donors via vein puncture into Vacutainer™ collection tubes containing sodium heparin (Catalog No. 366480, Becton Dickinson, Franklin Lakes, N.J.). Blood was warmed to 37° C. prior to use. […]
# Samples were transferred to 96-well U bottom plates (Falcon #353077) and flow cytometric analysis was performed on an LSRFortessa equipped with a HTS plate loader (BD Biosciences). […] Background fluorescence was defined using unstimulated cells and a gate was placed at the foot of the peak to include ˜0.5% gated population. […] Relative fluorescence unit (RFU), which measures the level of phospho STAT, was calculated by multiplying the percent positive population and its mean fluorescence. […] Inhibition curves and IC50 values were determined using the Prism version 7 software (GraphPad, La Jolla, Calif.).
# JAK3, sequence (P52333 822-1111): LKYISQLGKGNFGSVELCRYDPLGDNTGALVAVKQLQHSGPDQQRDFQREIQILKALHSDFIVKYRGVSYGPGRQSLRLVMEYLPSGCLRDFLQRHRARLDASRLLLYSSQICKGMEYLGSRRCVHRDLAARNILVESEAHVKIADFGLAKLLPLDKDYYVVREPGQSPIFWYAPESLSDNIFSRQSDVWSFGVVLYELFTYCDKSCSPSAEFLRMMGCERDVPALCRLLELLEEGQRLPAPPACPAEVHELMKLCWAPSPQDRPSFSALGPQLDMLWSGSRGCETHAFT
# JAK1, sequence (P23458 875-1153): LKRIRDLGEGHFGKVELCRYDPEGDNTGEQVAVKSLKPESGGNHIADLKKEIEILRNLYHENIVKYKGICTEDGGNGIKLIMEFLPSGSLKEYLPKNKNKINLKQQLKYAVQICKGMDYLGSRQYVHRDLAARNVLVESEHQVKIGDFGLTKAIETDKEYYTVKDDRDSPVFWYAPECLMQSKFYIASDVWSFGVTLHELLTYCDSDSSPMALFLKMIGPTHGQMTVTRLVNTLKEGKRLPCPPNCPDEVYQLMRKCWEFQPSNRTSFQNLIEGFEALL
# TYK2, sequence (P29597 897-1176): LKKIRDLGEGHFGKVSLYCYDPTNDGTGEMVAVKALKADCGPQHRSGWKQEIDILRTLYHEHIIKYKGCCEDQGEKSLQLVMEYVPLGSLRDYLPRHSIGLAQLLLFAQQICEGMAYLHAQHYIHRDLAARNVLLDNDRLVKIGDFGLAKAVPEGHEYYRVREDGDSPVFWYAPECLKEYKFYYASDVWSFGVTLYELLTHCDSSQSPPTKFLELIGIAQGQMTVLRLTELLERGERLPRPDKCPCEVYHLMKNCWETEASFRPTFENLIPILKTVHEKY
# JAK2, sequence (O60674 849-1124): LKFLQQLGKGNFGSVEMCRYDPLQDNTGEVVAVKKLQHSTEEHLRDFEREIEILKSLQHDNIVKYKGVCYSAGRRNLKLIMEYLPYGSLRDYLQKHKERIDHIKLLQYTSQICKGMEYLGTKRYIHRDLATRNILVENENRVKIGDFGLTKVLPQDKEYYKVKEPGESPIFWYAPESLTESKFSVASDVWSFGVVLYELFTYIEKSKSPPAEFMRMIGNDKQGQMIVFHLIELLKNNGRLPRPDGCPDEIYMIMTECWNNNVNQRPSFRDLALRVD
Compound,IC50 [1],IC50 [2],IC50 [3],IC50 [4],hepatocyte CLint at 1 μM [5],% inhibition CXCL10 [6],IC50 [7]
"C[C@@H](O)Cn1cc(Nc2nccc(N3C[C@H]4CC[C@@H](C3)N4C(=O)[C@@H]3CC3(F)F)n2)cn1 [IB, ((S)-2,2-Difluorocyclopropyl)((1R,5S)-3-(2-((1-((R)-2-hydroxypropyl)-1H-pyrazol-4-yl)amino)pyrimidin-4-yl)-3,8-diazabicyclo[3.2.1]octan-8-yl)methanone]",59 nM,223 nM,82 nM,> 10000 nM,,,
"CCCn1cc(Nc2nccc(N3C[C@H]4CC[C@@H](C3)N4C(=O)[C@@H]3CC3(F)F)n2)cn1 [IA, ((S)-2,2-Difluorocyclopropyl)((1R,5S)-3-(2-((1-propyl-1H-pyrazol-4-yl)amino)pyrimidin-4-yl)-3,8-diazabicyclo[3.2.1]octan-8-yl)methanone]",33 nM,80 nM,37 nM,> 9580 nM,8.6 µL/min/1e6 cells,94.2%,66 nM
"Cn1cc(Nc2nccc(N3C[C@H]4CC[C@@H](C3)N4C(=O)[C@@H]3CC3(F)F)n2)cn1 [II, ((S)-2,2-difluorocyclopropyl)-((1R,5S)-3-(2-((1-methyl-1H-pyrazol-4-yl)amino)pyrimidin-4-yl)-3,8-diazabicyclo[3.2.1]octan-8-yl)methanone, reference compound]",,,,,< 0.6 µL/min/1e6 cells,72.4%,

# Second part, led by results:
IC50 [1],IC50 [2],IC50 [3],IC50 [4],Compound,hepatocyte CLint at 1 μM [5],% inhibition CXCL10 [6],IC50 [7]
44 nM,139 nM,65 nM,,"C[C@H](O)Cn1cc(Nc2nccc(N3C[C@H]4CC[C@@H](C3)N4C(=O)[C@@H]3CC3(F)F)n2)cn1 [IC, ((S)-2,2-Difluorocyclopropyl)((1R,5S)-3-(2-((1-((S)-2-hydroxypropyl)-1H-pyrazol-4-yl)amino)pyrimidin-4-yl)-3,8-diazabicyclo[3.2.1]octan-8-yl)methanone]",,,
47 nM,81 nM,30 nM,> 9280 nM,O=C([C@@H]1CC1(F)F)N1[C@@H]2CC[C@H]1CN(c1ccnc(Nc3cnn(CCCO)c3)n1)C2 [ID],,,
